ChEMBL document CHEMBL5390317, “Novel Indane-Containing NBTIs with Potent Anti-Gram-Negative Activity and Minimal hERG Inhibition” (ACS Med Chem Lett, 2023)
≈ marks a conversion by molar mass, not a printed value.

What was measured:
[1] = system: Klebsiella pneumoniae; test: Antibacterial activity against Klebsiella pneumoniae ATCC 10031 assessed as inhibition in bacterial growth incubated for 20 to 24 hrs by CLSI based broth microdilution method; assay type: functional; conditions: time 20-24 hrs
[2] = target: T1, hERG (KCNH2) (Homo sapiens, UniProt Q12809); test: Inhibition of hERG potassium channel expressed in CHO cells at 10 uM by electrophysiological patch clamp assay relative to control; assay type: toxicity, cell-based; conditions: CHO cells expressing hERG
T1 sequence (Q12809 whole entry): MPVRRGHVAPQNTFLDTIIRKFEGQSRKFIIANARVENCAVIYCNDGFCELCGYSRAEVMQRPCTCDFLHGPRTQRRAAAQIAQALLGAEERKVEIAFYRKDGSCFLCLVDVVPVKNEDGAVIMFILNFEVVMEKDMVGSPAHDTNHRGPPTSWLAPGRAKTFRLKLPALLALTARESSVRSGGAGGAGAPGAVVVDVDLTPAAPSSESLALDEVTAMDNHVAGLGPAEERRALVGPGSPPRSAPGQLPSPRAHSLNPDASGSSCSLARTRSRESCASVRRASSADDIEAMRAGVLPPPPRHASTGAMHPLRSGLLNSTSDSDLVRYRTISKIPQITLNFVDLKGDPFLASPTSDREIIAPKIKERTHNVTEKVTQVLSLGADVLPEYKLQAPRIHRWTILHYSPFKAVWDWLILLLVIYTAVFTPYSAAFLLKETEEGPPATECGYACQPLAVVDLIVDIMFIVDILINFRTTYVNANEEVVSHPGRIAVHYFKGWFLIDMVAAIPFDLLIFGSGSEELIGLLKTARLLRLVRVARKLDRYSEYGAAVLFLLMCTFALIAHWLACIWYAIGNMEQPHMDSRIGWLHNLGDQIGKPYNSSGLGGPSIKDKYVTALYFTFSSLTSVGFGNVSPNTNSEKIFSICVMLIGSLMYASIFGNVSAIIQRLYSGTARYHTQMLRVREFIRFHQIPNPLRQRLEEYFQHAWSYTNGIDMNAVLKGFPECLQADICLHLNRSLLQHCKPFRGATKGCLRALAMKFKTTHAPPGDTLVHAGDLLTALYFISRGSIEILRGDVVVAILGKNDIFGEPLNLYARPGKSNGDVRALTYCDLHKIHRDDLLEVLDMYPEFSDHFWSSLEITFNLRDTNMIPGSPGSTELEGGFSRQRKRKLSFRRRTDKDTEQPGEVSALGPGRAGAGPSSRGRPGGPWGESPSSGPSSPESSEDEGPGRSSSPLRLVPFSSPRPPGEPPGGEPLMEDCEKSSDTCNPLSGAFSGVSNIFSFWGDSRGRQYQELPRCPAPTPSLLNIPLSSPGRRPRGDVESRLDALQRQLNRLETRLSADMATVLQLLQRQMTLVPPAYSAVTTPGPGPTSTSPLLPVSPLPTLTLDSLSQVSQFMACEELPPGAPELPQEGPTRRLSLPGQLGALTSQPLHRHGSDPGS

[3] = system: Pseudomonas aeruginosa; test: Antibacterial activity against Pseudomonas aeruginosa NCTC 13437 assessed as inhibition in bacterial growth incubated for 20 to 24 hrs by CLSI based broth microdilution method; assay type: functional; conditions: Pseudomonas aeruginosa, NCTC 13437, time 20-24 hrs; read-out: MIC
[4] = target: DNA gyrase (Escherichia coli, UniProt P0AES4+P0AES6); test: Inhibition of Escherichia coli DNA gyrase incubated for 80 mins by Transcreener ADP2 FI assay; assay type: protein-complex assay
[5] = system: Klebsiella pneumoniae; test: Antibacterial activity against Klebsiella pneumoniae ATCC BAA-2146 assessed as inhibition in bacterial growth incubated for 20 to 24 hrs by CLSI based broth microdilution method; assay type: functional; conditions: Klebsiella pneumoniae, ATCC BAA-2146, time 20-24 hrs; read-out: MIC
[6] = system: Staphylococcus aureus; test: Antibacterial activity against Staphylococcus aureus ATCC BAA-1556 assessed as inhibition in bacterial growth incubated for 20 to 24 hrs by CLSI based broth microdilution method; assay type: functional; conditions: Staphylococcus aureus, ATCC BAA-1556, time 20-24 hrs; read-out: MIC
[7] = Stability in rat plasma; assay type: ADME, cell-free
[8] = system: Escherichia coli; test: Antibacterial activity against Escherichia coli ATCC BAA-2340 assessed as inhibition in bacterial growth incubated for 20 to 24 hrs by CLSI based broth microdilution method; assay type: functional; conditions: Escherichia coli, ATCC BAA-2340, time 20-24 hrs; read-out: MIC
[9] = system: Klebsiella pneumoniae; test: Antibacterial activity against Klebsiella pneumoniae ATCC 700603 assessed as inhibition in bacterial growth incubated for 20 to 24 hrs by CLSI based broth microdilution method; assay type: functional; conditions: Klebsiella pneumoniae, ATCC 700603, time 20-24 hrs; read-out: MIC
[10] = system: Acinetobacter baumannii; test: Antibacterial activity against Acinetobacter baumannii ATCC 51432 assessed as inhibition in bacterial growth incubated for 20 to 24 hrs by CLSI based broth microdilution method; assay type: functional; conditions: Acinetobacter baumannii, ATCC 51432, time 20-24 hrs; read-out: MIC
[11] = target: Voltage-gated inwardly rectifying potassium channel KCNH2 (Homo sapiens, UniProt Q12809); test: (§1) Inhibition of hERG potassium channel expressed in CHO cells by electrophysiological patch clamp assay; assay type: toxicity, cell-based
Sequence of Voltage-gated inwardly rectifying potassium channel KCNH2 (Q12809 whole entry): as above

[12] = system: Pseudomonas aeruginosa; test: Antibacterial activity against Pseudomonas aeruginosa NCTC 11451 assessed as inhibition in bacterial growth incubated for 20 to 24 hrs by CLSI based broth microdilution method; assay type: functional; conditions: Pseudomonas aeruginosa, NCTC 11451, time 20-24 hrs; read-out: MIC
[13] = Inhibition of Escherichia coli topoisomerase 4 incubated for 120 mins by Transcreener ADP2 FI assay
[14] = system: Escherichia coli; test: Antibacterial activity against Escherichia coli ATCC 35218 assessed as inhibition in bacterial growth incubated for 20 to 24 hrs by CLSI based broth microdilution method; assay type: functional; conditions: Escherichia coli, ATCC 35218, time 20-24 hrs; read-out: MIC
[15] = system: Acinetobacter baumannii; test: Antibacterial activity against Acinetobacter baumannii ATCC 19606 assessed as inhibition in bacterial growth incubated for 20 to 24 hrs by CLSI based broth microdilution method; assay type: functional; conditions: time 20-24 hrs
[16] = system: Escherichia coli; test: Antibacterial activity against Escherichia coli K-12 BW25113 deltaTolC assessed as inhibition in bacterial growth incubated for 20 to 24 hrs by CLSI based broth microdilution method; assay type: functional; conditions: time 20-24 hrs
[17] = Stability in human plasma; assay type: ADME, cell-free
[18] = system: Pseudomonas aeruginosa; test: Antibacterial activity against Pseudomonas aeruginosa ATCC 27853 assessed as inhibition in bacterial growth incubated for 20 to 24 hrs by CLSI based broth microdilution method; assay type: functional; conditions: time 20-24 hrs
[19] = system: Acinetobacter baumannii; test: Antibacterial activity against Acinetobacter baumannii ATCC BAA-747 assessed as inhibition in bacterial growth incubated for 20 to 24 hrs by CLSI based broth microdilution method; assay type: functional; conditions: Acinetobacter baumannii, ATCC BAA-747, time 20-24 hrs; read-out: MIC
[20] = Stability in mouse plasma; assay type: ADME, cell-free
[21] = system: Escherichia coli; test: Antibacterial activity against Escherichia coli K-12 BW25113 assessed as inhibition in bacterial growth incubated for 20 to 24 hrs by CLSI based broth microdilution method; assay type: functional; conditions: Escherichia coli, K-12 BW25113, time 20-24 hrs; read-out: MIC
[22] = system: Staphylococcus aureus; test: Antibacterial activity against Staphylococcus aureus ATCC 29213 assessed as inhibition in bacterial growth incubated for 20 to 24 hrs by CLSI based broth microdilution method; assay type: functional; conditions: Staphylococcus aureus, ATCC 29213; time 20-24 hrs; read-out: MIC
[23] = system: Escherichia coli; test: Antibacterial activity against Escherichia coli ATCC 25922 assessed as inhibition in bacterial growth incubated for 20 to 24 hrs by CLSI based broth microdilution method; assay type: functional; conditions: time 20-24 hrs
[24] = system: Klebsiella pneumoniae; test: Antibacterial activity against Klebsiella pneumoniae ATCC BAA-1705 assessed as inhibition in bacterial growth incubated for 20 to 24 hrs by CLSI based broth microdilution method; assay type: functional; conditions: time 20-24 hrs
[25] = target: T1, hERG (KCNH2); test: Inhibition of hERG potassium channel expressed in CHO cells at 1 uM by electrophysiological patch clamp assay relative to control; assay type: toxicity, cell-based; conditions: CHO cells expressing hERG
[26] = Stability in rat plasma assessed as parent compound remaining after 5 hrs relative to control; assay type: ADME, cell-free; conditions: read-out: Stability
[27] = target: T1, hERG (KCNH2); test: as §1; assay type: toxicity, cell-based; conditions: human, CHO cells expressing hERG
[28] = Stability in human plasma assessed as parent compound remaining after 5 hrs relative to control; assay type: ADME, cell-free; conditions: read-out: Stability
[29] = Stability in mouse plasma assessed as parent compound remaining after 5 hrs relative to control; assay type: ADME, cell-free; conditions: read-out: Stability
[30] = Lipophilicity, log D of compound at pH 7.4; assay type: physicochemical; conditions: buffer

| Structure (SMILES) | MIC [1] [µg/mL] | inhibition at 10 µM [2] [%] | MIC [3] [µg/mL] | IC50 [4] [nM] | MIC [5] [µg/mL] | MIC [6] [µg/mL] | MIC [8] [µg/mL] | MIC [9] [µg/mL] | MIC [10] [µg/mL] | MIC [12] [µg/mL] | IC50 [13] [nM] | MIC [14] [µg/mL] | MIC [15] [µg/mL] | MIC [16] [µg/mL] | MIC [18] [µg/mL] | MIC [19] [µg/mL] | MIC [21] [µg/mL] | MIC [22] [µg/mL] | MIC [23] [µg/mL] | MIC [24] [µg/mL] | also measured |
| --- | --- | --- | --- | --- | --- | --- | --- | --- | --- | --- | --- | --- | --- | --- | --- | --- | --- | --- | --- | --- | --- |
| C[C@H](C(=O)Nc1cc(F)c2c(c1)CC(CNCCC1CN(c3cnc4c(n3)NC(=O)CO4)C(=O)O1)C2)N(C)C (stereo in doubt; 2e) | ≤ 0.06 | < 1 | 2 (≈ 3.69 µM) | 38 | 16 (≈ 29.5 µM) | 0.5 (≈ 0.923 µM) | 0.25 (≈ 0.462 µM) | 2 (≈ 3.69 µM) | 8 (≈ 14.8 µM) | 2 (≈ 3.69 µM) | 8 | 0.25 (≈ 0.462 µM) | 4 (≈ 7.39 µM) | ≤ 0.06 | 1 (≈ 1.85 µM) | 0.125 (≈ 0.231 µM) | ≤ 0.06 | 0.25 (≈ 0.462 µM) | 0.125 (≈ 0.231 µM) | 2 (≈ 3.69 µM) | Stability [7]: Stable; IC50 [11]: > 20000 nM; IC20 ([11]; human, cho): > 10000 nM; Stability [17]: Stable; Stability [20]: Stable; inhibition at 1 µM [25]: < 1% |
| CN(C)CC(=O)Nc1cc(F)c2c(c1)CC(CNCCC1CN(c3cnc4c(n3)NC(=O)CO4)C(=O)O1)C2 (configuration not stated) | ≤ 0.06 | < 1 | 2 (≈ 3.79 µM) | 26 | 4 (≈ 7.58 µM) | 1 (≈ 1.9 µM) | 0.125 (≈ 0.237 µM) | 2 (≈ 3.79 µM) | 16 (≈ 30.3 µM) | 2 (≈ 3.79 µM) | 3 | 0.125 (≈ 0.237 µM) | 8 (≈ 15.2 µM) | ≤ 0.06 | 0.5 (≈ 0.948 µM) | 0.25 (≈ 0.474 µM) | ≤ 0.06 | 0.5 (≈ 0.948 µM) | 0.125 (≈ 0.237 µM) | 2 (≈ 3.79 µM) | Stability [7]: Unstable; remaining at 5 h [26]: 99%; IC20 [27]: > 10000 nM; IC50 [11]: > 20000 nM; Stability [17]: Unstable; Stability [20]: Unstable; remaining at 5 h [28]: 76%; inhibition at 1 µM [25]: < 1% |
| O=C(CN1CCC1)Nc1cc(F)c2c(c1)CC(CNCCC1CN(c3cnc4c(n3)NC(=O)CO4)C(=O)O1)C2 (configuration not stated) | ≤ 0.06 | < 1 | 1 (≈ 1.85 µM) | 14 | 4 (≈ 7.41 µM) | 2 (≈ 3.71 µM) | 0.125 (≈ 0.232 µM) | 1 (≈ 1.85 µM) | 8 (≈ 14.8 µM) | 1 (≈ 1.85 µM) | 6 | 0.125 (≈ 0.232 µM) | 8 (≈ 14.8 µM) | ≤ 0.06 | 0.25 (≈ 0.463 µM) | 0.125 (≈ 0.232 µM) | ≤ 0.06 | 1 (≈ 1.85 µM) | 0.125 (≈ 0.232 µM) | 1 (≈ 1.85 µM) | remaining at 5 h [29]: 10%; IC20 [27]: > 10000 nM; IC50 [11]: > 20000 nM; inhibition at 1 µM [25]: < 1% |
| CC(C)(N)COc1cc(C#N)c2c(c1)CC(CNCCC1CN(c3ccc4c(n3)NC(=O)CO4)C(=O)O1)C2 (configuration not stated) | ≤ 0.06 | 11 | 0.5 (≈ 0.96 µM) | 16 | 4 (≈ 7.68 µM) | 0.25 (≈ 0.48 µM) | 0.125 (≈ 0.24 µM) | 4 (≈ 7.68 µM) | 8 (≈ 15.4 µM) | 1 (≈ 1.92 µM) | 23 | 0.25 (≈ 0.48 µM) | 8 (≈ 15.4 µM) | ≤ 0.06 | ≤ 0.06 | 0.25 (≈ 0.48 µM) | ≤ 0.06 | 0.125 (≈ 0.24 µM) | 0.25 (≈ 0.48 µM) | 2 (≈ 3.84 µM) | IC20 [27]: > 10000 nM; IC50 [11]: > 20000 nM; inhibition at 1 µM [25]: 3.5% |
| CN(C)C(C)(C)C(=O)Nc1cc(F)c2c(c1)CC(CNCCC1CN(c3cnc4c(n3)NC(=O)CO4)C(=O)O1)C2 (configuration not stated) | ≤ 0.06 | 57 | 4 (≈ 7.2 µM) | 43 | 4 (≈ 7.2 µM) | 0.25 (≈ 0.45 µM) | 0.25 (≈ 0.45 µM) | 4 (≈ 7.2 µM) | 4 (≈ 7.2 µM) | 4 (≈ 7.2 µM) | 13 | 0.25 (≈ 0.45 µM) | 2 (≈ 3.6 µM) | ≤ 0.06 | 1 (≈ 1.8 µM) | ≤ 0.06 | ≤ 0.06 | ≤ 0.06 | 0.125 (≈ 0.225 µM) | 2 (≈ 3.6 µM) | Stability [7]: Stable; IC20 [27]: 3000 nM; IC50 [11]: 8200 nM; Stability [17]: Stable; Stability [20]: Stable; inhibition at 1 µM [25]: 5% |
| CC(N)COc1cc(F)c2c(c1)CC(CCOCC1CN(c3cnc4c(n3)NC(=O)CO4)C(=O)O1)C2 (configuration not stated) | 0.125 (≈ 0.249 µM) | – | 32 (≈ 63.8 µM) | 170 | 64 (≈ 128 µM) | 1 (≈ 1.99 µM) | 16 (≈ 31.9 µM) | 64 (≈ 128 µM) | 8 (≈ 16 µM) | 64 (≈ 128 µM) | 27 | 8 (≈ 16 µM) | 8 (≈ 16 µM) | ≤ 0.06 | 8 (≈ 16 µM) | 4 (≈ 7.98 µM) | 4 (≈ 7.98 µM) | 0.25 (≈ 0.498 µM) | 8 (≈ 16 µM) | 64 (≈ 128 µM) | logD [30]: 0.22 |
